Reference: US20240400555A1 (Initial Therapeutics, Inc., priority 2023, published 2024)

Tested on: HCT-116 Firefly-luciferase reporter cells
Test: Cellular c-MYC Reporter Assay
Format: cell-based
Conditions: Homo sapiens; untitled table following Table 8a; HCT-116 Firefly-luciferase reporter cells, 24 h; read-out: pIC50 (converted)
Description: HCT-116 Firefly-luciferase reporter cells (BPS Bioscience) were seeded in 96-well tissue-culture treated sterile plates (Greiner Bio-One) at 5e4 cells/mL in 100 μL complete growth media (McCoy's 5A+10% FBS, +1% Pen-Strep, +1% G418). Cells were incubated at 37° C. with 5% CO2 for 4-6 h then treated with 3× compound solution in 50 μL complete growth media for a final volume of 150 μL per well with 0.2% DMSO. After 24 h incubation at 37° C. with 5% CO2, plates were allowed to equilibrate to RT for 20 min then developed by addition of 100 μL ONE-Glo Luciferase detection reagent (Promega), incubated at RT for 10 min. Luminescence was recorded using a SpectraMax i3x plate reader (Molecular Devices) and analyzed using Prism GraphPad 9 software.

IC50 | SMILES
851 nM | Cn1cnc2ccnc(N(C(=O)c3ccc(-n4nnc5cccnc54)cc3F)[C@@H]3CCCNC3)c21 [Example 248, (R)-4-(3H-[1,2,3]triazolo[4,5-b]pyridin-3-yl)-2-fluoro-N-(3-methyl-3H-imidazo[4,5-c]pyridin-4-yl)-N-(piperidin-3-yl)benzamide]
195 nM | CCCc1nnn(-c2ccc(C(=O)N(c3nccc4cccc(C)c34)[C@@H]3CCCNC3)c(F)c2)n1 [Example 286, (R)-2-fluoro-N-(8-methylisoquinolin-1-yl)-N-(piperidin-3-yl)-4-(5-propyl-2H-tetrazol-2-yl) benzamide]
> 20000 nM | Cc1cccc2ccnc(N(C(=O)c3ccc(-n4nnc5ccc(C(=O)O)nc54)cc3F)[C@@H]3CCCNC3)c12 [Example 293, (R)-3-(3-fluoro-4-((8-methylisoquinolin-1-yl)(piperidin-3-yl)carbamoyl)phenyl)-3H-[1,2,3]triazolo[4,5-b]pyridine-5-carboxylic acid]
> 5890 nM | O=C(c1ccc(-n2nnc3cccnc32)cc1F)N(c1ncccc1/C=C/CO)[C@@H]1CCCNC1 [Example 289, (R,E)-4-(3H-[1,2,3]triazolo[4,5-b]pyridin-3-yl)-2-fluoro-N-(3-(3-hydroxyprop-1-en-1-yl)pyridin-2-yl)-N-(piperidin-3-yl)benzamide]
67.6 nM | Cc1cn(-c2ccc(C(=O)N(c3nccc4cccc(C)c34)[C@@H]3CCCNC3)c(F)c2)nn1 [Example 251, (R)-2-fluoro-4-(4-methyl-1H-1,2,3-triazol-1-yl)-N-(8-methylisoquinolin-1-yl)-N-(piperidin-3-yl)benzamide]
1200 nM | O=C(c1ccc(-n2nnc3cccnc32)cc1F)N(c1nccc2ccc(Br)cc12)[C@@H]1CCCNC1 [Example 283, (R)-4-(3H-[1,2,3]triazolo[4,5-b]pyridin-3-yl)-N-(7-bromoisoquinolin-1-yl)-2-fluoro-N-(piperidin-3-yl)benzamide]
9120 nM | CN1CCC(C2CCN(C(=O)N(c3cc4ccccc4cn3)[C@@H]3CCCNC3)CC2)C1 (stereo partly drawn) [Example 256, N-(isoquinolin-3-yl)-4-(1-methylpyrrolidin-3-yl)-N—((R)-piperidin-3-yl)piperidine-1-carboxamide]
575 nM | Cc1cccc2ccnc(N(C(=O)N3CCC(c4nc(C5CC5)no4)CC3)[C@@H]3CCCNC3)c12 [Example 262, (R)-4-(3-cyclopropyl-1,2,4-oxadiazol-5-yl)-N-(8-methylisoquinolin-1-yl)-N-(piperidin-3-yl)piperidine-1-carboxamide]
8320 nM | Cc1cccc2ccnc(N(C(=O)N3CCCCC3c3nc4ccccc4s3)[C@@H]3CCCNC3)c12 (stereo partly drawn) [Example 259, 2-(benzo[d]thiazol-2-yl)-N-(8-methylisoquinolin-1-yl)-N—((R)-piperidin-3-yl)piperidine-1-carboxamide]
1410 nM | Cc1cnc(N(C(=O)c2ccc(-n3nnc4cccnc43)cc2F)[C@@H]2CCCNC2)c2c(C)cccc12 [Example 252, (R)-4-(3H-[1,2,3]triazolo[4,5-b]pyridin-3-yl)-N-(4,8-dimethylisoquinolin-1-yl)-2-fluoro-N-(piperidin-3-yl)benzamide]
3550 nM | Cc1cccc2ccnc(N(C(=O)N3CCC(c4cccc(O)c4)CC3)[C@@H]3CCCNC3)c12 [Example 269, (R)-4-(3-hydroxyphenyl)-N-(8-methylisoquinolin-1-yl)-N-(piperidin-3-yl)piperidine-1-carboxamide]
5750 nM | Cc1cccc2ccnc(N(C(=O)N3CCC4(CC3)OCCc3ccsc34)[C@@H]3CCCNC3)c12 [Example 265, (R)—N-(8-methylisoquinolin-1-yl)-N-(piperidin-3-yl)-4′,5′-dihydrospiro[piperidine-4,7′-thieno[2,3-c]pyran]-1-carboxamide]
1260 nM | O=C(c1ccc(-c2cccc3cnccc23)cc1F)N(c1cc2ccccc2cn1)[C@@H]1CCCNC1 [Example 291, (R)-2-fluoro-N-(isoquinolin-3-yl)-4-(isoquinolin-5-yl)-N-(piperidin-3-yl)benzamide]
> 20000 nM | Cc1cccc2ccnc(N(C(=O)c3ccc(-n4nnc5cccnc54)cc3)[C@H]3CNCC[C@@H]3C)c12 [Example 224, 4-(3H-[1,2,3]triazolo[4,5-b]pyridin-3-yl)-N-(8-methylisoquinolin-1-yl)-N-((3R,4S)-4-methylpiperidin-3-yl)benzamide]

Second part, the compound before the results:

SMILES | IC50
O=C(c1ccc(-n2nnc3cccnc32)cc1F)N(c1ncccc1-c1cc[nH]n1)[C@@H]1CCCNC1 [Example 136, (R)—N-(3-(1H-pyrazol-3-yl)pyridin-2-yl)-4-(3H-[1,2,3]triazolo[4,5-b]pyridin-3-yl)-2-fluoro-N-(piperidin-3-yl)benzamide] | 1100 nM
Cc1cc(C2CCN(C(=O)N(c3nccc4cccc(C)c34)[C@@H]3CCCCNC3)CC2)on1 [Example 181, (R)—N-(azepan-3-yl)-N-(8-methylisoquinolin-1-yl)-4-(3-methylisoxazol-5-yl)piperidine-1-carboxamide] | 11000 nM
Cc1cccc2ccnc(N(C(=O)c3ccc(-n4nnc5ccc(-c6cc[nH]n6)nc54)cc3F)[C@@H]3CCCNC3)c12 [Example 138, (R)-4-(5-(1H-pyrazol-3-yl)-3H-[1,2,3]triazolo[4,5-b]pyridin-3-yl)-2-fluoro-N-(8-methylisoquinolin-1-yl)-N-(piperidin-3-yl)benzamide] | 44.7 nM
CCOC(=O)/C=C/c1ccc2c(N(C(=O)c3ccc(-n4nnc5cccnc54)cc3F)[C@@H]3CCCNC3)nccc2c1 [Example 98, ethyl (R,E)-3-(1-(4-(3H-[1,2,3]triazolo[4,5-b]pyridin-3-yl)-2-fluoro-N-(piperidin-3-yl)benzamido)isoquinolin-6-yl)acrylate] | 759 nM
Cc1ccnc(N(C)c2ccc(C(=O)N(c3nccc4cccc(C)c34)[C@@H]3CCCNC3)c(F)c2)n1 [Example 180, (R)-2-fluoro-4-(methyl (4-methylpyrimidin-2-yl)amino)-N-(8-methylisoquinolin-1-yl)-N-(piperidin-3-yl)benzamide] | 3390 nM
C=Cc1cccc2ccnc(N(C(=O)c3ccc(-n4nnc5cccnc54)cc3F)[C@@H]3CCCNC3)c12 [Example 102, (R)-4-(3H-[1,2,3]triazolo[4,5-b]pyridin-3-yl)-2-fluoro-N-(piperidin-3-yl)-N-(8-vinylisoquinolin-1-yl)benzamide] | 46.8 nM
Cc1cccc2ccnc(N(C(=O)c3c(F)cc(-n4nnc5cccnc54)cc3F)[C@@H]3CCCNC3)c12 [Example 218, (R)-4-(3H-[1,2,3]triazolo[4,5-b]pyridin-3-yl)-2,6-difluoro-N-(8-methylisoquinolin-1-yl)-N-(piperidin-3-yl)benzamide] | 43.7 nM
O=C(c1ccc(-n2nnc3cccnc32)cc1F)N(c1nccc2sc(Br)cc12)[C@@H]1CCCNC1 [Example 162, (R)-4-(3H-[1,2,3]triazolo[4,5-b]pyridin-3-yl)-N-(2-bromothieno[3,2-c]pyridin-4-yl)-2-fluoro-N-(piperidin-3-yl)benzamide] | 776 nM
Cc1cccc2ccnc(N(C(=O)c3ccc(N4CC(C)NC4=O)cc3F)[C@@H]3CCCNC3)c12 (stereo partly drawn) [Example 172, 2-fluoro-4-(4-methyl-2-oxoimidazolidin-1-yl)-N-(8-methylisoquinolin-1-yl)-N—((R)-piperidin-3-yl)benzamide] | 6030 nM
Cc1cc(-c2ccc(C(=O)N(c3nccc4ccn(C)c34)[C@@H]3CCCNC3)c(F)c2)on1 [Example 212, (R)-2-fluoro-N-(1-methyl-1H-pyrrolo[2,3-c]pyridin-7-yl)-4-(3-methylisoxazol-5-yl)-N-(piperidin-3-yl)benzamide] | 355 nM
Cc1cccc2ccnc(N(C(=O)N3CCC(c4nn(C)c(=O)o4)CC3)[C@@H]3CCCNC3)c12 [Example 174, (R)-4-(4-methyl-5-oxo-4,5-dihydro-1,3,4-oxadiazol-2-yl)-N-(8 methylisoquinolin-1-yl)-N-(piperidin-3-yl)piperidine-1-carboxamide] | 3550 nM
Cc1nnn(-c2ccc(C(=O)N(c3nccc4cccc(C)c34)[C@@H]3CCCNC3)cc2)n1 [Example 179, (R)-4-(5-methyl-2H-tetrazol-2-yl)-N-(8-methylisoquinolin-1-yl)-N-(piperidin-3-yl)benzamide] | 72.4 nM
Cc1cccc2ccnc(N(C(=O)c3ccc(Oc4ncccn4)cc3F)[C@@H]3CCCNC3)c12 [Example 133, 2-fluoro-N-(8-methyl-1-isoquinolyl)-N-(3-piperidyl)-4-pyrimidin-2-yloxy-benzamide] | 269 nM
Cc1cncc(-c2ccc(C(=O)N(c3nccc4cccc(C)c34)[C@@H]3CCCNC3)c(F)c2)n1 [Example 202, (R)-2-fluoro-N-(8-methylisoquinolin-1-yl)-4-(6-methylpyrazin-2-yl)-N-(piperidin-3-yl)benzamide] | 372 nM
Cn1cc(-c2cccnc2N(C(=O)c2ccc(-n3nnc4cccnc43)cc2F)[C@@H]2CCCNC2)cn1 [Example 115, (R)-4-(3H-[1,2,3]triazolo[4,5-b]pyridin-3-yl)-2-fluoro-N-(3-(1-methyl-1H-pyrazol-4-yl)pyridin-2-yl)-N-(piperidin-3-yl)benzamide] | 550 nM
Cc1cccc2ccnc(N(C(=O)c3ccc(Nc4cccn(C)c4=O)cc3F)[C@@H]3CCCNC3)c12 [Example 131, (R)-2-fluoro-4-((1-methyl-2-oxo-1,2-dihydropyridin-3-yl)amino)-N-(8-methylisoquinolin-1-yl)-N-(piperidin-3-yl)benzamide] | 1910 nM
Cc1cccc2ccnc(N(C(=O)c3ccc(Nc4ncccn4)cc3F)[C@@H]3CCCCNC3)c12 [Example 185, (R)—N-(azepan-3-yl)-2-fluoro-N-(8-methylisoquinolin-1-yl)-4-(pyrimidin-2-ylamino)benzamide] | 3310 nM
